Data set [1] can be described thus: Shake flask n-octanol/deionized water partition (lipophilicity). The note with it: for pKa: Henderson–Hasselbalch; for Concentration, aqueous layer: deionised water phase; for Concentration, organic layer: n-octanol phase. Type of data set: physicochemical. Here is the method:
The lipophilicity of all complexes and free ligands was evaluated by the flask-shaking method through n-octanol/deionized water phase partition.[49–51] The partition coefficients (log Po/w) and distribution coefficients (log Do/w) of all substances were also acquired from molar absorption coefficients, conductivity, and pH measurements.[52–54]
Lipophilicity is an imperative factor in anticancer and antimicrobial properties, particularly the necessity for a relevant hydrophobicity to assist the crossing of the cell membrane. This is also supported for the characterization of a drug because it has a fundamental impact on the pharmacokinetic profile and is associated with its capacity to enter tumor cells through passive diffusion.[139] […] This is probably due to the fact that hydrophobic effects play a crucial role not only in the intramolecular interactions that take place between a medication and its target site, but also in the distribution of a drug within a biosystem, its interaction with rival binding sites, passage across and into membranes, and its interaction with metabolizing enzymes. However, the “accurate” model system for hydrophobic effects is octanol/water. Hydrophobicity (lipophilicity) is associated with the partition coefficient (log P), which is a measure of the ability of the solute to go into two immiscible phases (polar and non-polar environments). Also, it refers to the concentration of unionized species of compounds. Generally, the ability of a drug to penetrate with high permeability into lipid membranes depends on the solubility and partition coefficient of the drug. Furthermore, the partition coefficient is extensively employed in the discovery of new medications, chromatography, physical chemistry, environmental science and other fields. Since lipophilicity is one of the major parameters affecting important biological processes, it can influence drug intake via the absorption, distribution, metabolism, excretion, and toxicity (ADMET) characteristics of the substances.[140] Additionally, the ability of a molecule or drug to passively diffuse across cell membranes has been linked to its lipophilicity, which is a measure of the solubility of the substance in aqueous and lipid-like environments.[141] In general, chemotherapeutic medications often need to have certain solubility in the lipid phase in order to be absorbed by the biofilm. Meanwhile, the intracellular milieu is a water-soluble environment once the drug has entered the cell. The medicine must be water-soluble for it to have any anticancer effects. […] Conversely, the cytotoxic properties of a synthesized complex are not only associated with its DNA/protein binding affinity but may be also influenced by its lipophilicity. Additionally, molecules with higher lipophilicity have increased permeability into cell membranes, which determines a drug's cytotoxicity. […] However, more positive partition coefficient values (log P > 0) correspond to higher lipophilicity, and more negative values (log P < 0) correspond to higher hydrophilicity. Generally, log P is measured between −3 and +10; if […], the substance has an extremely hydrophilic character, and if log P > +10, the substance has an extremely hydrophobic character. In addition, the aromatic ligands get larger in size and become more hydrophobic. […] The present complexes (1–3) have higher values of log P and log D compared to the free ligand (Table 11). However, when log P > ±2, the drug will be harder to excrete from the body due to its high lipophilic character, which also creates toxicity due to accumulation. […] (Table 11). […] The observed results are also well correlated with cytotoxic properties. Moreover, in an equilibrium two-component system, the partition coefficient (log P) reflects the ratio of neutral solute concentrations in the organic and aqueous phases. As a result, log P expresses the inherent lipophilicity of a compound in the absence of dissociation or ionization. […]

Data set [2] concerns Salmonella enterica serovar typhi. Nature of the data set: Agar disc diffusion, strain C. It is filed as cell-based. The note with it: for Diameter of clear zone inhibition: control 6 mm. (In general: Agar diffusion results depend on both activity and mobility in agar.)
Data set [3] has as its system Candida albicans. In words: Agar disc diffusion, strain I. Type of data set: cell-based. On the set-up: Inhibition%: concentration or dose not given beside the values. The note with it: for Diameter of clear zone inhibition: control 6 mm.
For data set [4], the target named is BSA (Bos taurus, UniProt P02769). Nature of the data set: BSA fluorescence quenching titration. It is filed as binding, bovine. The note with it: for Gibb's free energy change (SV method II), BSA: T = 298 K; for Kq (SV method I), BSA: τ0 = 10^−8 s; for P, ratio of fluorescence quantum efficiency, BSA: F/F0 vs 1/[BSA]. Here is the method: Titrations were performed for all tested compounds (1–200 μM) with pre-incubated EB-bound DNA and the intensity variations between 510 nm and 610 nm were carefully monitored in the presence and absence of DNA (200 μM) during the initial emission and excitation by EB.[31]
Fluorescence emission spectral titration is an efficient approach to evaluating the binding properties of DNA/BSA biomolecules. In general, the fluorescence of EB is quite weak in aqueous solution, but when it is bound to DNA, the fluorescence intensity rises. However, it is a well-known imperative intercalator and is more supportive in distinguishing the binding strength of non-fluorescence test substances. Also, the fluorescence emission spectra of the EB–DNA adduct were examined at 610 nm in the absence and presence of rising quantities of each test compound. When the complex concentration (0–240 μM) rises, the fluorescence intensity of the EB-bound DNA complex diminishes owing to the displacement of EB from CT-DNA. A notable reduction in the fluorescence emission intensity at 610 nm is observed (Fig. S26 ^† and Table 4). The photoelectron shift from DNA's guanine base to the excited states may be the cause of the frequency quenching in the emission of the test substance by DNA. […] Therefore, the competitive binding experiment can make use of EB as a fluorescent probe. […] This is further evidence that complexes (1–3) strongly bind intercalatively with DNA. The observed results agree well with the data from electronic absorption spectral measurements. Additionally, the experiment was extended to examine the binding properties between the test substance and BSA. BSA mostly contains three amino acid residues (tyrosine, tryptophan, and phenylalanine), which give it its inherent fluorescence. […] These two residues also have minimal quenching effects. Tryptophan in BSA fluoresces mostly because of a residue that is trapped inside a hydrophobic cavity. Therefore, it is crucial to model potential binding interactions with the metal complexes. […] The fluorescence intensity also reduces while the test substances (1–3) are steadily blended with the BSA solution, proving that complexes (1–3) interact with BSA via altering the protein's secondary structure, which also leads to an alteration in the tryptophan environment of BSA (Fig. S27 ^†). Furthermore, BSA structural similarities share 76% sequence identity with human serum albumin (HSA), the most prevalent protein in blood plasma that transports ions and proteins to cells and tissues. HSA is able to readily crystallize under the trivalent cations, but BSA has no ready crystallizing property. However, they consist of parallel physicochemical properties to each other.[74,75] Additionally, the Stern–Volmer eqn (12) and (13) were employed to analyze the data (Fig. S28 ^† and Table 4). Additionally, the kq values for DNA and BSA binding were acquired in the range of 1.1636–2.8863 × 10^12 and 2.6390–7.0774 × 10^12 mol^−1 s^−1, respectively. They are also much greater than the collision quenching constant value (2.0 × 10^10 mol^−1 s^−1). Therefore, it is assumed that the static quenching process was brought on by adduct construction between the test compounds and BSA rather than a dynamic collision. However, fluorescence spectroscopy is generally plagued by the inner filter effect (IFE), disturbing spectral analysis. The energizing ray is attenuated due to the highly concentrated solution sample. As a result, strong fluorescence is only seen on surfaces facing the excitation beam.

Setting [5] is: n-octanol/deionised water, shake flask.

Read-outs that look alike come from different tables or passages of the source.

For orientation: pKa means the negative logarithm of the acid dissociation constant. One may read the Log D as lipophilicity at a set pH, counting ionised and neutral species. The Log P is a log measure of how a compound divides between an organic and an aqueous phase. With `[Mn+2].[O-]c1ccccc1N=Cc1ccc(N2CCOCC2)cc1.[O-]c1ccccc1N=Cc1ccc(N2CCOCC2)cc1.c1ccc(-c2ccccn2)nc1` [(1)], in data set [1], the “Concentration, aqueous ions” value is 238 µM; the “Net pH” value turned out to be 3.48; the pKa was determined as 3.42; the “Concentration, aqueous layer” value turned out to be 1600 µM. The “Concentration, organic layer” value in data set [1] was found to be 23500 µM. Besides, in data set [1] (n-octanol/deionised water), the “Log D” value was 1.107. Further, the “Log P” value in data set [1] (setting [5]) was determined as 1.166. In data set [2], the Inhibition% was determined as 40% and the “Diameter of clear zone inhibition” value is listed as 10 mm. In data set [3], the Inhibition% was 57% and the “Diameter of clear zone inhibition” value stood at 14 mm. For the same molecule, in data set [4], the “KSV (SV method I), BSA” value stood at 46510 M⁻¹; the “Kass (SV method II), BSA” value worked out at 20050 M⁻¹; the “n, number of binding sites (SV method II), BSA” value (“n, number of binding sites” for short) is 0.954; the “Gibb's free energy change (SV method II), BSA” value (from here on “Gibb's free energy change”) is -24.5 kJ/M. Moreover, in data set [4], the “Kq (SV method I), BSA” value was found to be 4.651e+12 M⁻¹ s⁻¹ and the “P, ratio of fluorescence quantum efficiency, BSA” value (“P, ratio” for short) amounted to 0.287.
`[Co+2].[O-]c1ccccc1N=Cc1ccc(N2CCOCC2)cc1.[O-]c1ccccc1N=Cc1ccc(N2CCOCC2)cc1.c1ccc(-c2ccccn2)nc1` [(2)]: in data set [1], the “Concentration, aqueous ions” value was determined as 56.6 µM; the “Net pH” value came to 4.38; the pKa worked out at 4.36; the “Concentration, aqueous layer” value stood at 12000 µM. In addition, the “Concentration, organic layer” value in data set [1] worked out at 400 µM. The log distribution coefficient (Log D) in data set [1] (n-octanol/deionised water) is recorded as −1.497. For the same molecule, the log partition coefficient (Log P) in data set [1] (setting [5]) is −1.477. Besides, in data set [2], the Inhibition% was found to be 40% and the “Diameter of clear zone inhibition” value amounted to 10 mm. In data set [3], the Inhibition% worked out at 50% and the “Diameter of clear zone inhibition” value was 12 mm. In addition, in data set [4], the “KSV (SV method I), BSA” value was determined as 70740 M⁻¹; the “Kass (SV method II), BSA” value was found to be 54550 M⁻¹; the “n, number of binding sites” value was found to be 1.018; the “Gibb's free energy change” value is -27.0 kJ/M. In data set [4], the “Kq (SV method I), BSA” value was found to be 7.074e+12 M⁻¹ s⁻¹ and the “P, ratio” value was determined as 0.385.
Take `[Ni+2].[O-]c1ccccc1N=Cc1ccc(N2CCOCC2)cc1.[O-]c1ccccc1N=Cc1ccc(N2CCOCC2)cc1.c1ccc(-c2ccccn2)nc1` [(3)]: in data set [1], the “Concentration, aqueous ions” value amounted to 35.7 µM; the “Net pH” value is 4.76; the pKa was 4.75; the “Concentration, aqueous layer” value is 1250 µM. The “Concentration, organic layer” value in data set [1] was 18500 µM. For the same molecule, in data set [1] (n-octanol/deionised water), the “Log D” value is recorded as 1.158. For the same molecule, the “Log P” value in data set [1] (setting [5]) worked out at 1.170. In data set [2], the Inhibition% amounted to 45% and the “Diameter of clear zone inhibition” value is recorded as 11 mm. In addition, in data set [3], the Inhibition% was 63% and the “Diameter of clear zone inhibition” value came out at 16 mm. Further, in data set [4], the “KSV (SV method I), BSA” value was 48060 M⁻¹; the “Kass (SV method II), BSA” value came to 52920 M⁻¹; the “n, number of binding sites” value is given as 1.051; the “Gibb's free energy change” value was -26.9 kJ/M. For the same molecule, in data set [4], the “Kq (SV method I), BSA” value worked out at 4.8055e+12 M⁻¹ s⁻¹ and the “P, ratio” value worked out at 0.348.
What is called logD is lipophilicity at a set pH, counting ionised and neutral species. For orientation: logP means the decadic logarithm of the partition coefficient of the neutral form, usually between octanol and water. Regarding `Oc1ccccc1N=Cc1ccc(N2CCOCC2)cc1` [(HL), 2-(4-morpholinobenzylideneamino)phenol], in data set [1], the “Concentration, aqueous ions” value was 789 µM; the “Net pH” value amounted to 3.35; the “Concentration, aqueous layer” value worked out at 900 µM; the “Concentration, organic layer” value amounted to 11000 µM. The log distribution coefficient (logD) at 24 h in data set [1] (n-octanol/deionised water, pH 7.11) is 0.814. Also, the pKa in data set [1] (n-octanol/deionized water (shake flask), pH 3.35, read-out: pKa) turned out to be 3.08. This molecule also gave a logP at 24 h in data set [1] (pH 7.11, n-octanol/deionised water, shake flask) of 1.09. In addition, in data set [2], the Inhibition% is reported as 45% and the “Diameter of clear zone inhibition” value amounted to 11 mm. In data set [3], the Inhibition% was 40% and the “Diameter of clear zone inhibition” value came out at 10 mm. In data set [4], the “KSV (SV method I), BSA” value came out at 26390 M⁻¹; the “Kass (SV method II), BSA” value is 10620 M⁻¹; the “n, number of binding sites” value was 0.926; the “Gibb's free energy change” value is -23.0 kJ/M. For the same molecule, in data set [4], the “Kq (SV method I), BSA” value was determined as 2.639e+12 M⁻¹ s⁻¹ and the “P, ratio” value is on record as 0.464.

The values are drawn from publication PMC10508264, “Exploring the antioxidant, antimicrobial, cytotoxic and biothermodynamic properties of novel morpholine derivative bioactive Mn(II), Co(II) and Ni(II) complexes – combined experimental and theoretical measurements towards DNA/BSA/SARS-CoV-2 3CL^Pro” (RSC Medicinal Chemistry, 2023).
